Results as given in ChEMBL document CHEMBL1201862, “PubChem BioAssay data set” (2004).
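Following 48 hours of exposure in 96-well plates, responses at five concentrations were used to interpolate endpoints linearly. GI50 is the concentration that inhibits growth by half.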 Activity calls are given as the source filed them. Cut-off read from the data, not from the text of the source: active = GI50 up to about 1.1 µM and inactive = higher.

Key:
Test in all cases: NCI-60 cell line screen, 48 h
EKVX = tested on: EKVX
A498 = tested on: A498
SNB-75 = tested on: SNB-75
SK-MEL-28 = tested on: SK-MEL-28
KM-20L2 = tested on: KM-20L2
CAKI-1 = tested on: CAKI-1
HT-29 = tested on: HT-29
U-251 = tested on: U-251
HL-60 = tested on: HL-60
CCRF-CEM = tested on: CCRF-CEM
LOX IMVI = tested on: LOX IMVI
RXF 393 = tested on: RXF 393
UACC-257 = tested on: UACC-257
786-0 = tested on: 786-0
UO-31 = tested on: UO-31
OVCAR-8 = tested on: OVCAR-8
HCT-116 = tested on: HCT-116
OVCAR-4 = tested on: OVCAR-4
K562 = tested on: K562
M19-MEL = tested on: M19-MEL
SK-MEL-5 = tested on: SK-MEL-5
OVCAR-3 = tested on: OVCAR-3
SF-539 = tested on: SF-539
SF-268 = tested on: SF-268
NCI-H522 = tested on: NCI-H522
SF-295 = tested on: SF-295
SNB-78 = tested on: SNB-78
ACHN = tested on: ACHN
NCI-H460 = tested on: NCI-H460
HOP-92 = tested on: HOP-92
UACC-62 = tested on: UACC-62
HOP-62 = tested on: HOP-62
SN12C = tested on: SN12C
A549 = tested on: A549
MOLT-4 = tested on: MOLT-4
Malme-3M = tested on: Malme-3M
COLO 205 = tested on: COLO 205
M14 = tested on: M14
LXFL 529 = tested on: LXFL 529
SK-OV-3 = tested on: SK-OV-3
DLD-1 = tested on: DLD-1
DMS-273 = tested on: DMS-273
RPMI-8226 = tested on: RPMI-8226
IGROV-1 = tested on: IGROV-1
DMS-114 = tested on: DMS-114
SW-620 = tested on: SW-620
HCT-15 = tested on: HCT-15
NCI-H23 = tested on: NCI-H23
SNB-19 = tested on: SNB-19
TK-10 = tested on: TK-10
SK-MEL-2 = tested on: SK-MEL-2
OVCAR-5 = tested on: OVCAR-5
HOP-18 = tested on: HOP-18
NCI-H226 = tested on: NCI-H226
KM12 = tested on: KM12
HCC 2998 = tested on: HCC 2998
SR = tested on: SR

Structure (SMILES): COc1cc([C@@H]2c3cc4c(cc3[C@@H](NC(=O)c3ccccc3)C3COC(=O)[C@@H]32)OCO4)cc(OC)c1O (some centres not stated)
- GI50 (EKVX): 21.4 µM (inactive)
- GI50 (A498): 6.1 µM (inactive)
- GI50 (SNB-75): 5.43 µM (inactive)
- GI50 (SK-MEL-28): 13.8 µM (inactive)
- GI50 (KM-20L2): 2.71 µM (inactive)
- GI50 (CAKI-1): 11.3 µM (inactive)
- GI50 (HT-29): 3.18 µM (inactive)
- GI50 (U-251): 1.32 µM (inactive)
- GI50 (HL-60): 1.87 µM (inactive)
- GI50 (CCRF-CEM): 1.57 µM (inactive)
- GI50 (LOX IMVI): 2.52 µM (inactive)
- GI50 (RXF 393): 7.31 µM (inactive)
- GI50 (UACC-257): 2.99 µM (inactive)
- GI50 (786-0): 4.26 µM (inactive)
- GI50 (UO-31): 4.89 µM (inactive)
- GI50 (OVCAR-8): 8.99 µM (inactive)
- GI50 (HCT-116): 5.42 µM (inactive)
- GI50 (OVCAR-4): 39.7 µM (inactive)
- GI50 (K562): 3.27 µM (inactive)
- GI50 (M19-MEL): 4.82 µM (inactive)
- GI50 (SK-MEL-5): 2.31 µM (inactive)
- GI50 (OVCAR-3): 20.8 µM (inactive)
- GI50 (SF-539): 6.14 µM (inactive)
- GI50 (SF-268): 4.55 µM (inactive)
- GI50 (NCI-H522): 0.423 µM (active)
- GI50 (SF-295): 3.51 µM (inactive)
- GI50 (SNB-78): 41.2 µM (inactive)
- GI50 (ACHN): 1.45 µM (inactive)
- GI50 (NCI-H460): 0.361 µM (active)
- GI50 (HOP-92): 8.39 µM (inactive)
- GI50 (UACC-62): 0.568 µM (active)
- GI50 (HOP-62): 2.54 µM (inactive)
- GI50 (SN12C): 2.55 µM (inactive)
- GI50 (A549): 1.04 µM (active)
- GI50 (MOLT-4): 0.491 µM (active)
- GI50 (Malme-3M): 3.61 µM (inactive)
- GI50 (COLO 205): 17.5 µM (inactive)
- GI50 (M14): 5.57 µM (inactive)
- GI50 (LXFL 529): 12.1 µM (inactive)
- GI50 (SK-OV-3): 6.62 µM (inactive)
- GI50 (DLD-1): 14.9 µM (inactive)
- GI50 (DMS-273): 1.52 µM (inactive)
- GI50 (RPMI-8226): 2.61 µM (inactive)
- GI50 (IGROV-1): 1.65 µM (inactive)
- GI50 (DMS-114): 2.61 µM (inactive)
- GI50 (SW-620): 10.3 µM (inactive)
- GI50 (HCT-15): 9.84 µM
- GI50 (NCI-H23): 2.77 µM (inactive)
- GI50 (SNB-19): 19.4 µM (inactive)
- GI50 (TK-10): 32.4 µM (inactive)
- GI50 (SK-MEL-2): 20.3 µM (inactive)
- GI50 (OVCAR-5): 49.9 µM (inactive)
- GI50 (HOP-18): > 100 µM (inactive)
- GI50 (NCI-H226): 1.53 µM (inactive)
- GI50 (KM12): 7.28 µM (inactive)
- GI50 (HCC 2998): 14 µM (inactive)

Structure (SMILES): Cc1cc(C)c2c(c1C)CN1CN2Cc2c(C)c(C)cc(C)c21
- GI50 (EKVX): > 100 µM (inactive)
- GI50 (SNB-75): 21 µM (inactive)
- GI50 (SK-MEL-28): > 100 µM (inactive)
- GI50 (CAKI-1): > 100 µM (inactive)
- GI50 (HT-29): 44.4 µM (inactive)
- GI50 (U-251): 5.18 µM (inactive)
- GI50 (HL-60): 11.4 µM (inactive)
- GI50 (CCRF-CEM): > 100 µM (inactive)
- GI50 (LOX IMVI): > 100 µM (inactive)
- GI50 (RXF 393): 4.38 µM (inactive)
- GI50 (786-0): > 100 µM (inactive)
- GI50 (UO-31): > 100 µM (inactive)
- GI50 (OVCAR-8): > 100 µM (inactive)
- GI50 (HCT-116): > 100 µM (inactive)
- GI50 (OVCAR-4): 7.98 µM (inactive)
- GI50 (K562): 8.75 µM (inactive)
- GI50 (M19-MEL): 30.5 µM (inactive)
- GI50 (OVCAR-3): 18.9 µM (inactive)
- GI50 (SF-539): > 100 µM (inactive)
- GI50 (SF-268): > 100 µM (inactive)
- GI50 (NCI-H522): > 100 µM (inactive)
- GI50 (SF-295): > 100 µM (inactive)
- GI50 (SNB-78): 42.6 µM (inactive)
- GI50 (ACHN): > 100 µM (inactive)
- GI50 (NCI-H460): 48.4 µM (inactive)
- GI50 (HOP-92): 67.1 µM (inactive)
- GI50 (UACC-62): > 100 µM (inactive)
- GI50 (HOP-62): > 100 µM (inactive)
- GI50 (SN12C): > 100 µM (inactive)
- GI50 (A549): 80.9 µM (inactive)
- GI50 (MOLT-4): > 100 µM (inactive)
- GI50 (Malme-3M): > 100 µM (inactive)
- GI50 (COLO 205): 45.6 µM (inactive)
- GI50 (M14): > 100 µM (inactive)
- GI50 (LXFL 529): 8.15 µM (inactive)
- GI50 (SK-OV-3): > 100 µM (inactive)
- GI50 (DLD-1): 20.8 µM (inactive)
- GI50 (DMS-273): 6.56 µM (inactive)
- GI50 (RPMI-8226): > 100 µM (inactive)
- GI50 (IGROV-1): > 100 µM (inactive)
- GI50 (DMS-114): 2.92 µM (inactive)
- GI50 (SW-620): > 100 µM (inactive)
- GI50 (HCT-15): 20.4 µM
- GI50 (NCI-H23): 6.84 µM (inactive)
- GI50 (SNB-19): < 0.01 µM (active)
- GI50 (TK-10): > 100 µM (inactive)
- GI50 (SR): > 100 µM (inactive)
- GI50 (OVCAR-5): > 100 µM (inactive)
- GI50 (HOP-18): 83.6 µM (inactive)
- GI50 (NCI-H226): > 100 µM (inactive)
- GI50 (KM12): > 100 µM (inactive)
